This experiment concerns P. falciparum (NF54 or 3D7 strain). Briefly: P. falciparum proliferation assay in infected human blood cells (SYBR Green). Format: cell-based. To be noted: Plasmodium falciparum. Here is the method:
Assay for P. falciparum Proliferation in Infected Human Blood Cells
Compounds of the invention can be assayed to measure their capacity to inhibit proliferation of P. falciparum parasitemia in infected red blood cells. This parasite proliferation assay measures the increase in parasite DNA content using a DNA intercalating dye, SYBR Green® (INVITROGEN®) which has a high affinity for double stranded DNA.
NF54 or 3D7 P. falciparum strain is grown in complete culturing media until parasitemia reaches 3% to 8% with O+ human erythrocytes. […] 20 μl of screening media is dispensed into 384 well assay plates. 50 nl of compounds of the invention (in DMSO), including antimalarial controls (mefloquine, pyrimethamine and artemisinin), are then transferred into the assay plates, as well as DMSO alone to serve as a negative control for inhibition. Then 30 μl of a suspension of a NF54 or 3D7 P. falciparum infected erythrocytes in screening media is dispensed into the assay plates such that the final hematocrit is 2.5% with a final parasitemia of 0.3%. The plates are placed in a 37° C. incubator for 72 hours in a low oxygen environment containing 93% N2, 4% CO2, and 3% O2 gas mixture. 10 μl of lysis buffer (saponin, triton-X, EDTA) containing a 10× solution of SYBR Green I® in RPMI media is dispensed into the plates. The plates are lidded and kept at room temperature overnight for the lysis of the infected red blood cells. The fluorescence intensity is measured (excitation 425 nm, emission 530 nm) using the Envision™ system (Perkin Elmer). The percentage inhibition of 50%, EC50, is calculated for each compound.

Setting [1] is: read-out: EC50, P. falciparum Proliferation Assay.
The mark [2] stands for this setting: Erythrocyte, infected human erythrocytes, 72 hours, SYBR Green fluorescence, read-out: EC50 (nM), inhibitory efficacy in delaying P. falciparum proliferation in infected human blood cells.

Consider 28 compounds from patent US9556169B2, “Compounds and compositions for the treatment of parasitic diseases” (NOVARTIS AG, priority 2012, dated 2017).

Read-outs that look alike come from different tables or passages of the source. Some results are limits rather than exact numbers.

Take `CN(C(=O)c1ccn2ncc(-c3cnc4[nH]ccc4c3)c2c1)c1ccc(C#N)cc1` [Example 40, N-(4-cyanophenyl)-N-methyl-3-(1H-pyrrolo[2,3-b]pyridin-5-yl)pyrazolo[1,5-a]pyridine-5-carboxamide]: under setting [1], the EC50 was below 5 nM.

With `CN(C(=O)c1ccn2ncc(-c3ccc(N)nc3)c2c1)c1ccc(C#N)cc1` [Example 41, 3-(6-aminopyridin-3-yl)-N-(4-cyanophenyl)-N-methylpyrazolo[1,5-a]pyridine-5-carboxamide], the EC50 under setting [1] is below 5 nM.

Turning to `C[C@@H](N)C(=O)Nc1ccc(-c2cnn3ccc(C(=O)N(C)c4ccc(C#N)cc4)cc23)cc1` [Example 44, (R)-3-(4-(2-aminopropanamido)phenyl)-N-(4-cyanophenyl)-N-methylpyrazolo[1,5-a]pyridine-5-carboxamide], the EC50 under setting [1] is below 5 nM.

With `CN(C(=O)c1ccn2ncc(-c3cnc4[nH]ccc4c3)c2c1)c1ccc(C#N)cn1` [Example 53, N-(5-cyanopyridin-2-yl)-N-methyl-3-(1H-pyrrolo[2,3-b]pyridin-5-yl)pyrazolo[1,5-a]pyridine-5-carboxamide], under setting [1], the EC50 is below 5 nM.

For `CN(C(=O)c1ccn2ncc(-c3cnc(N)nc3)c2c1)c1ccc(C#N)cc1` [Example 83, 3-(2-aminopyrimidin-5-yl)-N-(4-cyanophenyl)-N-methylpyrazolo[1,5-a]pyridine-5-carboxamide], the EC50 under setting [1] was below 5 nM.

On to `CN(C(=O)c1ccn2ncc(-c3ccc(C(=O)O)cc3)c2c1)c1ccc(C#N)cn1` [Example 101, 4-(5-((5-Cyanopyridin-2-yl)(methyl)carbamoyl)pyrazolo[1,5-a]pyridin-3-yl)benzoic acid], for which the EC50 under setting [2] was determined as 6160 nM.

As to `N#Cc1ccc(N(CCO)C(=O)c2ccn3ncc(-c4ccc(C(N)=O)cc4)c3c2)cc1` [Example 105, 3-(4-Carbamoylphenyl)-N-(4-cyanophenyl)-N-(2-hydroxyethyl)pyrazolo[1,5-a]pyridine-5-carboxamide], the EC50 under setting [2] came to 935 nM.

On to `CNC(=O)c1ccc(-c2cnn3ccc(C(=O)Nc4ccc(C#N)cn4)cc23)cc1` [Example 106, N-(5-Cyanopyridin-2-yl)-3-(4-(methylcarbamoyl)phenyl)pyrazolo[1,5-a]pyridine-5-carboxamide], for which, under setting [2], the EC50 was found to be 521 nM.

For the compound `N#Cc1ccc(N(C(=O)c2ccn3ncc(-c4ccc(C(N)=O)cc4)c3c2)C2CC2)nc1` [Example 120, 3-(4-Carbamoylphenyl)-N-(5-cyanopyridin-2-yl)-N-cyclopropylpyrazolo[1,5-a]pyridine-5-carboxamide], under setting [2], the EC50 is 9 nM.

In the case of `CC(C)NC(=O)c1ccc(-c2cnn3ccc(C(=O)N(c4ccc(C#N)cn4)C4CC4)cc23)cc1` [Example 121, N-(5-Cyanopyridin-2-yl)-N-cyclopropyl-3-(4-(isopropylcarbamoyl)phenyl)pyrazolo[1,5-a]pyridine-5-carboxamide], the EC50 under setting [2] worked out at 1160 nM.

`CNC(=O)c1ccc(-c2cnn3ccc(C(=O)N(C)c4ccc(OC)nc4)cc23)cc1` [Example 122, N-(6-Methoxypyridin-3-yl)-N-methyl-3-(4-(methylcarbamoyl)phenyl)pyrazolo[1,5-a]pyridine-5-carboxamide]: the EC50 under setting [2] was above 10000 nM.

`N#Cc1ccc(N(C(=O)c2ccn3ncc(-c4ccc(C(=O)NC5CC5)cc4)c3c2)C2CC2)nc1` [Example 123, N-(5-Cyanopyridin-2-yl)-N-cyclopropyl-3-(4-(cyclopropylcarbamoyl)phenyl)pyrazolo[1,5a]pyridine-5-carboxamide]: the EC50 under setting [2] turned out to be 393 nM.

Turning to `CNC(=O)c1ccc(-c2cnn3ccc(C(=O)N(c4ccc(Cl)cn4)C4CC4)cc23)cc1` [Example 124, N-(5-Chloropyridin-2-yl)-N-cyclopropyl-3-(4-(methylcarbamoyl)phenyl)pyrazolo[1,5-a]pyridine-5-carboxamide], the EC50 under setting [2] is 19 nM.

As to `CNC(=O)c1ccc(-c2cnn3ccc(C(=O)N(c4ccc(F)cn4)C4CC4)cc23)cc1` [Example 125, N-Cyclopropyl-N-(5-fluoropyridin-2-yl)-3-(4-(methylcarbamoyl)phenyl)pyrazolo[1,5a]pyridine-5-carboxamide], under setting [2], the EC50 was determined as 80 nM.

For `CNC(=O)c1ccc(-c2cnn3ccc(C(=O)N(c4ccc(C#N)cn4)C4CCCC4)cc23)cc1` [Example 126, N-(5-Cyanopyridin-2-yl)-N-cyclopentyl-3-(4-(methylcarbamoyl)phenyl)pyrazolo[1,5-a]pyridine-5-carboxamide], under setting [2], the EC50 stood at 67 nM.

With `CCNC(=O)c1ccc(-c2cnn3ccc(C(=O)N(c4ccc(C#N)cn4)C4CC4)cc23)cc1` [Example 127, N-(5-Cyanopyridin-2-yl)-N-cyclopropyl-3-(4-(ethylcarbamoyl)phenyl)pyrazolo[1,5-a]pyridine-5-carboxamide], the EC50 under setting [2] was 49 nM.

As to `CNC(=O)c1ccc(-c2cnn3ccc(C(=O)N(c4ccc(C(=O)O)cn4)C4CC4)cc23)cc1` [Example 128, 6-(N-Cyclopropyl-3-(4-(methylcarbamoyl)phenyl)pyrazolo[1,5-a]pyridine-5-carboxamido) nicotinic acid], the EC50 under setting [2] came to 4270 nM.

For `CNC(=O)c1ccc(-c2cnn3ccc(C(=O)N(c4ccc(C(N)=O)cn4)C4CC4)cc23)cc1` [Example 129, N-(5-Carbamoylpyridin-2-yl)-N-cyclopropyl-3-(4-(methylcarbamoyl)phenyl)pyrazolo[1,5-a]pyridine-5-carboxamide], the EC50 under setting [2] stood at 2440 nM.

Turning to `CNC(=O)c1ccc(-c2cnn3ccc(C(=O)N(c4ccc(F)c(F)c4)C4CC4)cc23)cc1` [Example 130, N-Cyclopropyl-N-(3,4-difluorophenyl)-3-(4-(methylcarbamoyl)phenyl)pyrazolo[1,5-a]pyridine-5-carboxamide], under setting [2], the EC50 came to 12 nM.

As to `N#Cc1ccc(N(C(=O)c2ccn3ncc(-c4ccc(C(=O)NC5COC5)cc4)c3c2)C2CC2)nc1` [Example 131, N-(5-Cyanopyridin-2-yl)-N-cyclopropyl-3-(4-(oxetan-3-ylcarbamoyl)phenyl)pyrazolo[1,5-a]pyridine-5-carboxamide], under setting [2], the EC50 is 324 nM.

Turning to `CNC(=O)c1ccc(-c2cnn3ccc(C(=O)N(c4ccc(C(F)(F)F)cn4)C4CC4)cc23)cc1` [Example 132, N-Cyclopropyl-3-(4-(methylcarbamoyl)phenyl)-N-(5-(trifluoromethyl)pyridin-2-yl)pyrazolo[1,5-a]pyridine-5-carboxamide], the EC50 under setting [2] stood at 29 nM.

Take `N#Cc1ccc(N(C(=O)c2ccn3ncc(-c4ccc(C(N)=O)cc4)c3c2)C2CC2)cc1` [Example 134, 3-(4-carbamoylphenyl)-N-(4-cyanophenyl)-N-cyclopropylpyrazolo[1,5-a]pyridine-5-carboxamide]: the EC50 under setting [2] came to 4 nM.

Consider `NC(=O)c1ccc(-c2cnn3ccc(C(=O)N(c4ccc(F)c(F)c4)C4CC4)cc23)cc1` [Example 135, 3-(4-Carbamoylphenyl)-N-cyclopropyl-N-(3,4-difluorophenyl)pyrazolo[1,5-a]pyridine-5-carboxamide], for which, under setting [2], the EC50 was 1 nM.

With `N#Cc1ccc(N(C(=O)c2ccn3ncc(-c4ccc(C(N)=O)nc4)c3c2)C2CC2)cc1` [Example 138, 3-(6-Carbamoylpyridin-3-yl)-N-(4-cyanophenyl)-N-cyclopropylpyrazolo[1,5-a]pyridine-5-carboxamide], the EC50 under setting [2] came out at 10 nM.

In the case of `N#Cc1ccc(N(C(=O)c2ccn3ncc(-c4ccc(C(N)=O)cn4)c3c2)C2CC2)nc1` [Example 139, 3-(5-Carbamoylpyridin-2-yl)-N-(5-cyanopyridin-2-yl)-N-cyclopropylpyrazolo[1,5-a]pyridine-5-carboxamide], the EC50 under setting [2] came to 30 nM.

For `N#Cc1ccc(N(C(=O)c2ccn3ncc(-c4ccc(C(N)=O)cn4)c3c2)C2CC2)cc1` [Example 142, 3-(5-Carbamoylpyridin-2-yl)-N-(4-cyanophenyl)-N-cyclopropylpyrazolo[1,5-a]pyridine-5-carboxamide], the EC50 (Erythrocyte, 72 h, read-out: EC50 (nM), inhibitory efficacy in delaying P. falciparum proliferation in infected human blood cells) is 48 nM.

In the case of `CNC(=O)c1ccc(-c2cnn3ccc(S(=O)(=O)N(c4ccc(C#N)cn4)C4CC4)cc23)cc1` [Example 164, 4-(5-(N-(5-Cyanopyridin-2-yl)-N-cyclopropylsulfamoyl)pyrazolo[1,5-a]pyridin-3-yl)-N-methylbenzamide], the EC50 under setting [2] was determined as 2 nM.

Turning to `N#Cc1ccc(N(C2CC2)S(=O)(=O)c2ccn3ncc(-c4ccc(C(N)=O)cc4)c3c2)nc1` [Example 165, 4-(5-(N-(5-cyanopyridin-2-yl)-N-cyclopropylsulfamoyl)pyrazolo[1,5-a]pyridin-3-yl)benzamide], the EC50 under setting [2] was found to be 3 nM.
